This note sets out measurements from patent publication US8940310B2, “Methods of treatment using TLR7 and/or TLR9 inhibitors” (Dynavax Technologies Corporation, priority 2010, dated 2015).

[I] = hypoxanthine (inosine)

Series [1] concerns the target T1, TLR9 (Homo sapiens, UniProt Q9NR96).
T1 construct: the primary human PDCs were thus stimulated with HSV-1 (4 MOI) or influenza (2 MOI); endogenous in cells; host or cells: primary human plasmacytoid dendritic cells from blood donors
T1 sequence (Q9NR96 26-1032): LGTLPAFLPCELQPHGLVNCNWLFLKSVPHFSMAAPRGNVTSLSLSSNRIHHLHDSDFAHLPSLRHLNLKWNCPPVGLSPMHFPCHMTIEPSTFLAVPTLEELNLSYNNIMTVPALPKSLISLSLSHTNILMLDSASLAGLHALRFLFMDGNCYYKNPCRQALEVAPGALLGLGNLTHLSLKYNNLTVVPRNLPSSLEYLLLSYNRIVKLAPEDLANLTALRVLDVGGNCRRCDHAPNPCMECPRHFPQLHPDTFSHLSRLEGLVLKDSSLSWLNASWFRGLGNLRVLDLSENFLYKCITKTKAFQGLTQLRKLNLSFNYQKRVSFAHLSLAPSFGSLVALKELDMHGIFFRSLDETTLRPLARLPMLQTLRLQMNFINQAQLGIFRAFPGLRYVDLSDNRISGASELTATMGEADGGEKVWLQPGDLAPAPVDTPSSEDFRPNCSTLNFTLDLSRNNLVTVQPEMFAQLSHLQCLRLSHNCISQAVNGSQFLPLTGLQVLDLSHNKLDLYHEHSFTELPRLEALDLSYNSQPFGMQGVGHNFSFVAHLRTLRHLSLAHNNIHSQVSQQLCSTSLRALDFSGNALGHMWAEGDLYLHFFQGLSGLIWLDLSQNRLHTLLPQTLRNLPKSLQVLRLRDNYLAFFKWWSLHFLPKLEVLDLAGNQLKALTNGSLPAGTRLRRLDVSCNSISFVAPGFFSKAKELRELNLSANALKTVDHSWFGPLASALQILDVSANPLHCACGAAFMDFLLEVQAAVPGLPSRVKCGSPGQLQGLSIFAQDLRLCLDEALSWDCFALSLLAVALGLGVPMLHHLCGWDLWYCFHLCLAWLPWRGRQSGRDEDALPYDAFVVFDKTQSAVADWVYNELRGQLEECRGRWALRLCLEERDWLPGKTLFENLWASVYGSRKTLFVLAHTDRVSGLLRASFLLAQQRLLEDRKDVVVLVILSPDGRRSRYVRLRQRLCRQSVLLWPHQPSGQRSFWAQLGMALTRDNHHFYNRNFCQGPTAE
The series is described as follows: Human PDC stimulated with HSV-1 (TLR9 ligand), IFN-α. The class given is cell-based. The following applies: TLR9L HSV. An excerpt:
Human PDCs infected with herpes simplex virus type 1 (HSV-1 KOS strain) respond by producing IFN-α and this response is dependent on TLR-9 signaling. Human PDCs infected with influenza virus (FLU H1N1 strain, A/PR/8/34 from a patient in Puerto Rico 1934; See ATCC catalog VR-95) also respond by producing IFN-α, however, this response is dependent on TLR-7 signaling and independent of TLR-9. The effect of IRPs on innate immune response cytokine production by infected cells was examined. In a dose-dependent manner, the primary human PDCs were thus stimulated with HSV-1 (4 MOI) or influenza (2 MOI), either alone or in the presence of the tested IRPs. At 24 hours, supernatants were collected and cytokine levels, IFN-alpha, were measured by immunoassay.
Human PDCs from 16-18 donors were purified and infected with influenza virus (strain PR/8) or HSV-1. HSV was used at 4 MOI, while the influenza virus was used at 2 MOI. The amount of IFN-α produced by the cells was measured and compared to the amount of virus used for infection.
To further investigate the effectiveness of IRPs on TLR7 and TLR9 activation, various IRPs or control samples were assayed for immunoregulatory activity on human PDCs as described in Example 8.

For series [2], the system named is TLR7 and TLR9. The series is described as follows: Type I IFN-regulated genes in spleens of lupus-prone mice (Taqman). The class given is in vivo, mouse. The settings on record: (NZBxNZW)F1 and TLR7.Tg.6, IRS 100 μg s.c. every 3 days for 10 days. How it is done: (A) (NZBxNZW)F1 mice were treated as described in FIG. 16 but when mice received IRS, different doses of GC were used (in mg per mouse here) (B) (NZBxNZW)F1 and (C) TLR7.Tg.6 mice were left untreated or treated with IRS (100 μg/mice s.c) every 3 days for 10 days and spleens were harvested 18 hr after the last IRS injection. RNA was prepared from the spleens of the animals and the levels of type I IFN-regulated genes were measured by quantitative analysis (Taqman). Averages±standard error of the mean for n=6-10 mice per group.
PCR reactions were performed as described previously (Barrat et al., 2005). In brief, RNA was extracted from collagenase D-treated splenocyte suspensions with Qiagen RNA and cDNA was generated with SuperScript First-Strand Synthesis System (Invitrogen). ECT was threshold cycle (CT) values for each gene were normalized to the housekeeping genes ubiquitin or β-actin using the formula Eq. 1.8(HSKGENE) (100,000), where HSK is the mean CT of triplicate housekeeping gene runs, GENE is the mean CT of duplicate runs of the gene of interest, and 100,000 is arbitrarily chosen as a factor to bring all values above 0.
In general terms: Real-time PCR tracks product formation cycle by cycle.

In general, IC50 refers to the concentration needed to halve the response being measured. Read a low IC50 as inhibition by little substance. For orientation: IC90 means the concentration at which the effect reaches the 90% level. Lower therefore signals greater potency. In series [1], “5′-TGC TCC TGG AGI GGT TGT-3′ (DNA TGCTCCTGGAGNGGTTGT; DNA, [I] at 12, backbone and methylation of C not given here) [SEQ ID NO:73]” gave an IC50 of 25 nM and an IC90 of 99 nM.

On to “5′-TGCTCCTGGAGGGGTTGT-3′ (DNA, backbone not given here) [SEQ ID NO:42]”, for which the “expression of IFN-regulated genes” value in series [2] is given as “reduced the expression of IFN-regulated genes but not TNF-α”.
